Laboratory results as given in patent US8349577B2, “Method for evaluating blood-neural barrier permeability” (Research Foundation For Mental Hygiene, Inc., priority 2010, dated 2013).
Entries after “also recorded” stand apart in the source; their conditions may differ.

Columns and labels:
[1] = tested on: PLA2 activity in lumbar CSF; assay: Continuous fluorescence PLA2 activity assay with lumbar CSF (Bis-BODIPY FL C11-PC-labeled DOPC liposomes); format: biochemical, human; details: for Inhibition of PLA2 activity from lumbar CSF: 5 μL lumbar CSF incubated with inhibitor, FIGS. 3A-3C
Experimental: (§1) PLA2 activity assays were carried out in triplicates using a continuous fluorescent measurement. In a 96-well microplate, 5 μL lumbar CSF (or 10 μM recombinant sPLA2) was diluted in 90 μL PLA2 assay buffer (10 mM Tris-HCl, pH 7.4; 100 mM KCl; 5 mM CaCl2; 1 mM DTT). Then, 5 μL Bis-BODIPY® FL C11-PC-labeled 100% DOPC liposomes were added to each well and the microplate was immediately placed in a temperature controlled (30° C.) cytofluor multi-well plate reader series 4000 (PerSeptive Biosystems®, Foster City, Calif.). The fluorescence intensity was recorded over 90 min (91 cycles of 60 sec each) at 485 nm excitation and 530 nm emission. Finally, PLA2 activity was evaluated using linear curve fitting with Graph Prism 3.0 (GraphPad Software™, San Diego, Calif.).
(§2) Although there are currently twenty-two different PLA2 enzymes classified in five families (sPLA2, cPLA2, iPLA2, PAF-AH and lysosomal PLA2), there is currently no known tool for the specific characterization of each of these isozymes. Thus, to characterize the activity of each new PLA2 the current approach is to determine to which family the PLA2 enzyme belongs. For this purpose, a battery of inhibitors more or less specific against each PLA2 family is generally used to discriminate one family from another.
(§3) Stock solutions and serial dilutions of PLA2 inhibitors (AACOCF3, BEL and Thioetheramide-PC) were prepared in PLA2 assay buffer supplemented by 4.25 mM Triton X-100. Each assay was carried out in the absence or presence of 5 μL of the appropriate inhibitor.

recombinant sPLA2 = assay: Continuous fluorescence PLA2 activity assay with recombinant sPLA2 (Bis-BODIPY FL C11-PC-labeled DOPC liposomes); format: biochemical; details: for Inhibition of PLA2 activity from recombinant sPLA2: recombinant sPLA2 incubated with inhibitor, FIGS. 3A-3C
Experimental: as §1, §2, §3

[2] = various concentrations of calcium, FIG. 3D

Row | Molecule | Inhibition of PLA2 activity from lumbar CSF [1] | Inhibition of PLA2 activity from recombinant sPLA2 (recombinant sPLA2) | Effect of increasing calcium concentration on PLA2 activity in lumbar CSF [1, 2] | Effect of increasing calcium concentration on recombinant sPLA2 activity (recombinant sPLA2; [2])
1 | CCCCC/C=C\C/C=C\C/C=C\C/C=C\CCCC(=O)C(F)(F)F [AACOCF3] | not and failed to do so | failed to do so | – | –
2 | O=C1O/C(=C/Br)CCC1c1cccc2ccccc12 (centres unmarked) [BEL] | not and failed to do so | failed to do so | – | –
3 | CCCCCCCCCCCCCCCCSC[C@H](COP(=O)(O)OCC[N+](C)(C)C)NC(=O)CCCCCCCCCCCCCCC [thioetheramide-PC] | strongly inhibited; also recorded: dose-dependently inhibited | dose-dependently inhibited | – | –
4 | calcium | – | – | increase of PLA2 activity | increase of PLA2 activity
